This is an account of results in article PMC3713097 (Chemical research in toxicology, 2013).

Where two headings read alike, the source gives them in different places. A value given as a limit tells only on which side of the number the result lay.

Data set [1] deals with T1, P450 2A6 (Homo sapiens, UniProt P11509).
T1 sequence (P11509 1-494): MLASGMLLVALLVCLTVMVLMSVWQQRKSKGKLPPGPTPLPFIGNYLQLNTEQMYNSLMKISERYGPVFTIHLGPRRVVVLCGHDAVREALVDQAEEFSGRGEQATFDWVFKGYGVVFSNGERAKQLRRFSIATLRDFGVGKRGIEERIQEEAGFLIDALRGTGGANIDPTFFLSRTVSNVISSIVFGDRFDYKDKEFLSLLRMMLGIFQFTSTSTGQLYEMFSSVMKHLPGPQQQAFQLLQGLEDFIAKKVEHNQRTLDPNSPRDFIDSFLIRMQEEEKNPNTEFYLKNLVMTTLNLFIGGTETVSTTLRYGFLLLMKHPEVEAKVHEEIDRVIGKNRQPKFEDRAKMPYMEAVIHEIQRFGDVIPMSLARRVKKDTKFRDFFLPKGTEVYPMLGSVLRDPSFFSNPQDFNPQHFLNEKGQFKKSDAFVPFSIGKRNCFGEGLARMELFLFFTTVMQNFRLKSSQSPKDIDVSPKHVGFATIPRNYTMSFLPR
Particulars: pH 7.4.

Data set [2] deals with T2, P450 1B1 (Homo sapiens, UniProt Q16678, L432V).
T2 sequence (Q16678 1-543 L432V): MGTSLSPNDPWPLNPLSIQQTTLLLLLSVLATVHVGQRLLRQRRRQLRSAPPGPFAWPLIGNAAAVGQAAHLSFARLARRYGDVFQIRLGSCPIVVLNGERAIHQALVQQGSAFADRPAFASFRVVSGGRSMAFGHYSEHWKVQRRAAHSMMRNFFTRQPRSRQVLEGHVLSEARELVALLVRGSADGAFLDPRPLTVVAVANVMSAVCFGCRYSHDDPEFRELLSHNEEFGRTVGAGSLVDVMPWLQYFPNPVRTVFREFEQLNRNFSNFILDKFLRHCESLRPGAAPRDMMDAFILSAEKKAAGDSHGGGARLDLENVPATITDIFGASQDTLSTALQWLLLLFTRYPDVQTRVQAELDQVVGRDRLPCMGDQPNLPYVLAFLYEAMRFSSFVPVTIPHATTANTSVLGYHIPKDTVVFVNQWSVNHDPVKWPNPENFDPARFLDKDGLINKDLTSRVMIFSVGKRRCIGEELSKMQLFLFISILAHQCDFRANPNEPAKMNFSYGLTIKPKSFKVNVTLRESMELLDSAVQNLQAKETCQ
Particulars: pH 7.4.

The target of data set [3] is T2, P450 1B1. Nature of the data set: Spectral binding titration with purified P450 1B1.
Data set [4] addresses T3, human P450 2A13 (Homo sapiens, UniProt Q16696).
T3 sequence (Q16696 31-494 limits assumed): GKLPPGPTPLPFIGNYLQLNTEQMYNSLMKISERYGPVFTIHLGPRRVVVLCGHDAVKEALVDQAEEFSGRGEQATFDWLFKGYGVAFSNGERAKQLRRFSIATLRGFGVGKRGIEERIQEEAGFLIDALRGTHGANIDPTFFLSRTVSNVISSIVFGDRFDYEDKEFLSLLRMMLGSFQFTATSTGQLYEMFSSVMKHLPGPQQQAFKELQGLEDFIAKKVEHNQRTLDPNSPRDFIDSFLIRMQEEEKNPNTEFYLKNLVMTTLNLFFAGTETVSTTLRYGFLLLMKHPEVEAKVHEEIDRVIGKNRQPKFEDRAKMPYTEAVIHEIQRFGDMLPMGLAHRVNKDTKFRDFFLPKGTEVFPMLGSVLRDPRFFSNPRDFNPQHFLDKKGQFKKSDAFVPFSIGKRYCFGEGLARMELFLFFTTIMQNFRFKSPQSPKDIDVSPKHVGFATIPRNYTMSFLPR
Particulars: pH 7.4.

The next data set has as its target T4, P450 2A13 (Homo sapiens, UniProt Q16696).
T4 sequence (Q16696 with tags, fused parts or gaps limits assumed): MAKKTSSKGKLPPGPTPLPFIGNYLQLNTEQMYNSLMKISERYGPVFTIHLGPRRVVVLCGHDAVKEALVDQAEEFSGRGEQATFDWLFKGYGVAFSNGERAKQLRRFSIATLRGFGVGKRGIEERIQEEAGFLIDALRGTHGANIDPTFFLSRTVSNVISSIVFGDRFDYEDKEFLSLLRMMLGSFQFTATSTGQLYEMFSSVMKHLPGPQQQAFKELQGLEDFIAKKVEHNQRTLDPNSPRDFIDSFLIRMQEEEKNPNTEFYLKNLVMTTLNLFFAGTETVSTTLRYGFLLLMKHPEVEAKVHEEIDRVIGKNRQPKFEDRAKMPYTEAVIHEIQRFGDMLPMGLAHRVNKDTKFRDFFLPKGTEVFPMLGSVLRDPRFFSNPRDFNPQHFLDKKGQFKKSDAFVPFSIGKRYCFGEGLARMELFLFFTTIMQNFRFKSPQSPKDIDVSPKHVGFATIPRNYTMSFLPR
Nature of the data set: Spectral binding titration with purified P450 2A13. Particulars: for ΔAmax/ Ks / ΔAmax: P450 2A13, Type I spectra; for ΔAmax: ± SE.

The target of data set [5] is T3, human P450 2A13. Particulars: 10 nM P450, 2.5 µM procarcinogen, means ± range of duplicate experiments.
In data set [6] the target is T2, P450 1B1. Particulars: 10 nM P450, 2.5 µM procarcinogen, means ± range of duplicate experiments.
Data set [7] has as its target T1, P450 2A6. Nature of the data set: Spectral binding titration with purified P450 2A6.
Data set [8] has as its target T1, P450 2A6. Particulars: 10 nM P450, 2.5 µM procarcinogen, means ± range of duplicate experiments.
[9] abbreviates: P450 1B1, Reverse Type I spectra.
Where [10] appears, read: P450 1B1, Reverse Type I spectra, ± SE.

For orientation: Kd means the equilibrium constant for the complex coming apart. A higher Kd goes with lower affinity. Consider `OC1C=Cc2c(ccc3cc4ccccc4cc23)C1O` (stereo not drawn) [B[a]A-trans-3,4-diol, 3,4-dihydroxy-3,4-dihydrobenz[a]anthracene], for which the “activation of procarcinogens umu gene expression” value (from here on “activation”) at P450 2A6 [1] (2.5 µM), on P450 1B1 [2] (2.5 µM) and at human P450 2A13 [4] (2.5 µM) was under 10 units/min/nmol P450 each time. The same compound showed a Kd at P450 1B1 [3] (human, pH 7.4) of over 20 µM.
`Cc1c2ccccc2c(C)c2c3c(ccc12)C(O)C(O)C=C3` (stereo not drawn) [7,12-DMBA-3,4-diol, 3,4-dihydroxy-3,4-dihydro-7,12-dimethylbenz[a]anthracene]: the results for the “activation” value on P450 2A6 [1] (2.5 µM), at P450 1B1 [2] (2.5 µM) and on human P450 2A13 [4] (2.5 µM) were 55 ± 13 units/min/nmol P450, 2700 ± 110 units/min/nmol P450 and 280 ± 33 units/min/nmol P450, respectively. Further, the Kd on P450 1B1 [3] (human, pH 7.4) was over 20 µM; on P450 2A13 (human, pH 7.4), over 20 µM.
On to `Cc1cnc2ccc3c(nc(N)n3C)c2n1` [MeIQx, 2-amino-3,8-dimethylimiidazo[4,5-f]quinoxaline], for which the “activation” value at P450 2A6 [1] is 45 ± 15 units/min/nmol P450; at P450 1B1 [2], 87 ± 11 units/min/nmol P450; at human P450 2A13 [4], 110 ± 15 units/min/nmol P450.
`Cc1c(N)nc(C)c2c1[nH]c1ccccc12` [Trp-P-1, 3-amino-1,4-dimethyl-5H-pyrido[4,3-b]indole]: the results for the “activation” value at P450 2A6 [1], at P450 1B1 [2] and at human P450 2A13 [4] were 61 ± 11 units/min/nmol P450, 910 ± 90 units/min/nmol P450 and 40 ± 9 units/min/nmol P450, respectively. The compound also gave a Kd on P450 1B1 [3] of over 20 µM.
With `Cc1c2ccccc2c(C)c2c1ccc1ccccc12` [7,12-DMBA, 7,12-dimethylbenz[a]anthracene], the results for the “activation” value at P450 2A6 [1], on P450 1B1 [2] and at human P450 2A13 [4] were under 10 units/min/nmol P450, 190 ± 21 units/min/nmol P450 and under 10 units/min/nmol P450, respectively. The figures for the Kd at P450 1B1 [3] and at P450 2A13 were 8.8 ± 1.3 µM and over 20 µM, respectively. This compound yielded a ΔAmax on P450 1B1 [3] of 0.039 ± 0.002. For the same compound, at P450 1B1 [3], the “ΔAmax/ Ks” value was determined as 0.0044.
As for `OC1C=Cc2c(cc3ccc4cccc5ccc2c3c45)C1O` (racemic) [( ± )B[a]P-7,8-diol, 7,8-dihydroxy-7,8-dihydrobenzo[a]pyrene], the “activation” value on P450 2A6 [1] is listed as 45 ± 11 units/min/nmol P450; at human P450 2A13 [5], 136 ± 22 units/min/nmol P450; on P450 1B1 [6], 2600 ± 110 units/min/nmol P450. Also, the Kd on P450 1B1 [3] is 6.8 ± 1.2 µM; at P450 2A13, over 20 µM. On P450 1B1 [3] (setting [9]), the “ΔAmax/ Ks” value turned out to be 0.0035. Further, the ΔAmax on P450 1B1 [3] (setting [10]) worked out at 0.024 ± 0.002.
Take `c1ccc2c(c1)ccc1ccc3ccccc3c12` [B[c]Phe, benzo[c]phenanthrene]: the Kd at P450 2A6 [7] was over 20 µM; on P450 1B1 [3], 2.5 ± 0.31 µM; on P450 2A13 it was 1.1 ± 0.44 µM. Moreover, the figures for the “activation” value on human P450 2A13 [5], at P450 2A6 [8] and on P450 1B1 [6] were 55 ± 11 units/min/nmol P450, 22 ± 8 units/min/nmol P450 and 25 ± 10 units/min/nmol P450, respectively. Moreover, the results for the “ΔAmax/ Ks” value on P450 1B1 [3] (setting [9]) and on P450 2A13 were 0.016 and 0.045, respectively. Further, the ΔAmax is reported as 0.039 ± 0.001 at P450 1B1 [3] (setting [10]) and 0.049 ± 0.005 on P450 2A13.
On to `c1cc2c3c(cccc3c1)CC2` [acenaphthene], for which the values for the Kd at P450 2A6 [7], on P450 1B1 [3] and on P450 2A13 were 1.2 ± 0.21 µM, over 20 µM and 0.48 ± 0.1 µM, respectively. The “ΔAmax/ Ks” value at P450 2A6 [7] (P450 2A6, Type I spectra) worked out at 0.057; at P450 2A13, 0.15. Further, the ΔAmax at P450 2A6 [7] (P450 2A6, Type I spectra, ± SE) was 0.068 ± 0.002; on P450 2A13, 0.074 ± 0.005. At P450 2A6 [7] (result in words), the “spectral interaction with P450 2A6 (Type I binding spectra)” value is given as “interacted”. Also, the “activation” value on human P450 2A13 [5], on P450 2A6 [8] and at P450 1B1 [6] was under 10 units/min/nmol P450 throughout.
